In patent US20250340941A1, “ASSAY AND METHODS FOR DRUG DISCOVERY” (BIOVIE INC., priority 2023, published 2025):

Legend:
[1] = system: TNFR1 phosphorylation in THP-1 human monocytes; assay: TNFa-stimulated TNFR1 ERK-dependent phosphorylation, Western blot densitometry; assay type: cell-based; conditions: THP-1, TNFa 50 ng/mL
Protocol: THP-1 monocytes were treated with 100 nM NE3107, 1 uM IKK-16 (IKK inhibitor), 1 uM Tpl2 Kinase inhibitor (TPL2i) or Vehicle (0.1% DMSO) and stimulated with TNFa 50 ng/mL. Cell lysates were collected at 0, 2, 5, 10, 15, and 30 minutes. The results are given as fold change with respect to the control following Western blotting and quantification of band intensities by densitometry scanning.
THP-1 human monocytes were grown in complete growth medium (ATCC-formulated RPMI-1640 Medium, Catalog No. 30-2001), 2-mercaptoethanol to a final concentration of 0.05 mM and fetal bovine serum to final concentration of 10%. THP-1 human monocytes were then seeded into 10 mL complete growth medium at 0.4×10^6/mL in a T25 flask and were grown to 0.8×10^6/mL in about 1 to 2 days. The cells were then starved in 0.5% FBS RPMI for 16 h. The THP-1 monocytes were then treated with 100 nM 17α-ethynylandrost-5-ene-3ϕ3,7ϕ3,17ϕ3-triol (NE3107), 1 μM IKK-16 (IKK inhibitor), 1 μM Tpl2 Kinase inhibitor (TPL2i) or 0.1% DMSO (vehicle). Cells were stimulated with stimulated with 50 ng/mL TNFa and cell lysates were collected at 0, 2, 5, 10, 15, and 30 minutes after TNFa stimulation. Total cell lysates were subjected to Western blotting as described in Lu et al., Mol. Endocrinol. 22 (2008), 760-771. Relative band intensities were quantified by densitometry scanning. The results are given as fold change with respect to untreated cells in Table 2.

[2] = Phase 3 trial: imaging sub-study vMRI; assay type: in vivo, human; conditions: Phase 3 imaging sub-study, 23 subjects, blinded analysis; result in words
Protocol: Subjects were analyzed using imaging sub-studies vMRI on 23 subjects. It was observed that the volume was increased in the hippocampus and amygdala. In addition, it was observed that a decreased CGIC was correlated with decreased hippocampi volume and increased MCP-1 was correlated with increased whole cortex. The results are described in FIGS. 4A-4B and Table 6.

[3] = Phase 3 trial (NM101, NCT04669028): metabolic changes, blinded assessment; assay type: in vivo, human
Source text: In this example, the clinical outcomes from a Phase 3, randomized, placebo-controlled trial of NE3107 (17α-ethynylandrost-5-ene-3ϕ3,7ϕ3,17ϕ3-triol) in subjects with mild to moderate probable Alzheimer's disease.
Recently, the roles of inflammation and insulin resistance in neurodegeneration have become better appreciated. […] We describe the rationale and design of NM101, the first randomized, multicenter Phase III clinical study to examine the safety and efficacy of 30-week treatment with NE3107 versus placebo in elderly adults with mild-to-moderate Alzheimer's disease. Patients (316) will be randomized in a 1:1 ratio. The co-primary end points measure cognitive function and functional and behavioral characteristics (Clinical Dementia Rating Scale Sum of Boxes, CDR-SB) and cognitive function (ADAS Cog12). Trial registration number: NCT04669028 (Clinicaltrials.gov).
Subjects metabolic and correlation changes were analyzed. Many of the genes associated with LOAD (late onset Alzheimer's disease) are related to cholesterol metabolism, which is decreased in AD neuron membranes. Insulin and glycemic controls are known to be involved in neurodegeneration. […] Increased mean amplitude of glycemic excursion (MAGE from CGM) increased risk of Alzheimer's disease progression. Leptin is an anti-inflammatory, neuroprotective and is decreased in AD. […] The results are described in Tables 4 and 5.

[4] = Phase 3 trial: FDG-PET imaging; assay type: in vivo, human; conditions: Phase 3, blinded analysis; subjects with a baseline whole cortex suvr <1.29, n/N
Protocol: Subjects were analyzed using a fluorodeoxyglucose (FDG)-positron emission tomography (PET) imaging scans. FDG-PET standardized uptake value ratios (“suvr”) were increased in 14/24 subjects with a baseline whole cortex suvr <1.29. […] Cholesterol increases trended with increased Cingulate suvr. The results are described in Table 7 and FIG. 5.

[5] = Phase 3 trial: adverse events; assay type: in vivo, human; conditions: blinded (IP or placebo not known)
Source text: Of the 439 subjects enrolled in the study, 156 experienced 1 or more AEs (35.5%). There were only 43 (9.8%) related AEs with the majority 42 […] categorized as non-serious AEs by the principal investigator. The study also had very low rate of serious AEs reported. There were 12 (2.7%) reported for the duration of the study. […] As this is a blinded analysis it is not known if the subjects was on IP or placebo.

[6] = Phase 3 trial: neuropsychiatric inventory; assay type: in vivo, human; conditions: Phase 3, blinded analysis (NE3107 and placebo not separated)
Protocol: Subjects were analyzed for neuropsychiatric inventory. […] An improvement in appetite was also correlated with decreased Cog12, CDR SB and ADCOMS, with increased Alzheimer's disease. A decrease in anxiety was correlated with an increase ADL and decreased CGIC. Sleep improvement was correlated with a decrease in CGIC and decreased in TNFa. The results are described in Table 8 and FIGS. 6A-6B.

[7] = system: Horvath Clock DNA methylation (DNAm); assay: Horvath Clock DNA methylation (DNAm) epigenetic analysis of whole blood, 3-month open-label phase 2 study (NCT05007820); assay type: in vivo, human
Source text: NE3107 is an oral small molecule, blood-brain permeable anti-inflammatory insulin sensitizer that binds ERK, inhibits NFKB and TNF signaling, and is in clinical studies for Probable AD (NCT04669028) and Parkinson's disease (NCT05083260). Safety, clinical, biomarker and neuroimaging results from a 3-month open-label phase 2 study of NE3107 treatment of MCI and probable AD (NCT05007820) were reported at CTAD (2022 J. Prev. Alzheimers Dis 9 S86, S140 and S27). In this example, the inventors determined the results of epigenetic clock studies from NCT05007820.
Methods: Subjects with clinical dementia rating (CDR) 0.5-1 were consented, and whole blood was drawn, frozen and shipped for Horvath Clock DNA methylation (DNAm) epigenetic analysis (Horvath 2018 Aging 10:1758) at baseline and 3 months.
(§1) Result: The subject's SkinBloodAge clock closely matched their chronological age at baseline (mean 71.5 vs 70.8 years). After 3 months of NE3107 (20 mg BID), the SkinBloodAge decreased by a mean of 3.3 years (Table). […] Leptin is reportedly lower in AD, and DNAmLeptin is reported to be positively correlated with metabolic parameters waist/hip ratio, BMI, CRP, insulin, glucose and triglycerides (Lu 2022 Aging 14:9884). […] DNAmPack Years is reported to be negatively correlated with time to mortality in both smokers and nonsmokers, and positively correlated with waist/hip ratio, CRP and triglycerides. Monocyte DNAm was correlated with monocyte frequency at baseline, and although it is reported to increases with chronological age, it decreased (−29%) in 77% of subjects after 3 months treatment. […]

Monocytes = assay: Blood monocyte frequency, 3-month open-label phase 2 study; assay type: in vivo, human
Protocol: as §1

[8] = Phase 3, blinded analysis (NE3107 and placebo not separated)
[9] = Phase 3, blinded analysis, result in words
[10] = After 3 months of NE3107 (20 mg BID), result in words
[11] = After 3 months of NE3107 (20 mg BID), size of decrease
[12] = Blood Cell Frequency, 3 months vs baseline, mean
[13] = Blood Cell Frequency, NE3107 20 mg BID, 3 months, mean
[14] = NE3107 20 mg BID, 3 months vs baseline
[15] = NE3107 20 mg BID, 3 months vs baseline, mean
[16] = NE3107 20 mg BID, 3 months, mean
[17] = NE3107 20 mg BID, 3 months, n/N subjects

O=C(c1ccc(Nc2nccc(-c3cc4ccccc4s3)n2)cc1)N1CCC(N2CCCC2)CC1 [IKKi, IKK-16, reference compound]
Fold vs DMSO control P-TNFR1/Actin in Gel2 ([1]; 1 μM, 0 min): 2.09 fold
Fold vs DMSO control P-TNFR1/TNFR1 in Gel2 ([1]; 1 μM, 0 min): 2.92 fold
Fold vs DMSO control P-TNFR1/Actin in Gel2 ([1]; 1 μM, 15 min): 0.92 fold
Fold vs DMSO control P-TNFR1/TNFR1 in Gel2 ([1]; 1 μM, 15 min): 0.59 fold
Fold vs DMSO control P-TNFR1/Actin in Gel2 ([1]; 1 μM, 30 min): 0.49 fold
Fold vs DMSO control P-TNFR1/TNFR1 in Gel2 ([1]; 1 μM, 30 min): 0.30 fold

C#C[C@]1(O)CC[C@H]2[C@@H]3[C@@H](O)C=C4C[C@@H](O)CC[C@]4(C)[C@H]3CC[C@@]21C [NE3107, 17α-ethynylandrost-5-ene-3ϕ3,7ϕ3,17ϕ3-triol]
vMRI volume in the hippocampus and amygdala [2]: increased
HOMA2-% B, Change from Baseline [3, 8]: +13.5%, *
HOMA2-% S, Change from Baseline [3, 8]: −21.2%, *
Insulin, Change from Baseline [3, 8]: +1.9 μIU/mL
Leptin, V10 median [3, 8]: 29.2 ng/mL
MAGE, Change from Baseline ([3]; Phase 3, blinded analysis (NE3107 and placebo not separated), from CGM): -0.57 mg/dL
Leptin DNAm [3, 9]: observed to increase
cases of hypoglycemia [3, 9]: no cases of hypoglycemia
Cholesterol, Change from Baseline ([3]; Phase 3, mild to moderate probable AD, blinded analysis (NE3107 and placebo subjects not separated)): +3.0 mg/dL
subjects with increased FDG-PET standardized uptake value ratios (suvr) [4]: 14/24
related AEs ([5]; Phase 3, 439 subjects enrolled): 9.8%
related AEs categorized as non-serious ([5]; Phase 3, 439 subjects enrolled): 0.6%
serious AEs reported ([5]; Phase 3, 439 subjects enrolled): 2.7%
subjects discontinued due to a reported AE ([5]; Phase 3, 439 subjects enrolled): 1.8%
subjects who experienced 1 or more AEs ([5]; Phase 3, 439 subjects enrolled): 35.5%
serious AEs that resulted in death ([5]; Phase 3, count): 1
neuropsychiatric inventory: overall improvement in appetite [6]: −1.0
neuropsychiatric inventory: overall improvement in sleep [6]: −1.0
DNAmCD4Tcell, Change (%) ([7]; 3 months vs baseline): (18%)
DNAmCD8Tcell, Change (%) ([7]; 3 months vs baseline): (12%)
DNAmGranulocyte, Change (%) ([7]; 3 months vs baseline): (2.2%)
DNAmNKcell, Change (%) ([7]; 3 months vs baseline): (0.5%)
changes in DNAmT, DNAmNK or DNAmGran [7, 10]: no significant changes
DNAmPackYears decreased by [7, 11]: 39%
SkinBloodAge decreased by a mean of [7, 11]: 3.3 years
DNAmCD4Tcell, Change [7, 12]: −0.033
DNAmCD8Tcell, Change [7, 12]: −0.002
DNAmGranulocyte, Change [7, 12]: −0.015
DNAmNKcell, Change [7, 12]: −0.0003
DNAmCD4Tcell, 3 Months [7, 13]: 0.152
DNAmCD8Tcell, 3 Months [7, 13]: 0.013
DNAmGranulocyte, 3 Months [7, 13]: 0.653
DNAmNKcell, 3 Months [7, 13]: 0.063
DNAmPackYears, Change (%) [7, 14]: (39%)
DNAmSkinBlood, Change (%) [7, 14]: (−4.6%)
DNAmMonocytes, Change [7, 15]: −0.022 Freq
DNAmPackYears, Change [7, 15]: −9.4
DNAmSkinBlood, Change [7, 15]: −3.3 years
DNAmSkinBlood, 3 Months ([7]; NE3107 20 mg BID, 3 months, MCI/probable AD subjects (CDR 0.5-1), whole blood, mean): 67.5 years
DNAmMonocytes, 3 Months [7, 16]: 0.054 Freq
DNAmPackYears, 3 Months [7, 16]: 14.6
DNAmLeptin, Frequency (subjects with decrease) [7, 17]: 22/22
DNAmMonocytes, Frequency (subjects with decrease) [7, 17]: 17/22
DNAmPackYears, Frequency (subjects with decrease) [7, 17]: 21/22
DNAmSkinBlood, Frequency (subjects with decrease) [7, 17]: 19/22
change in monocyte frequency (Monocytes; [10]): no significant change
Monocytes, Change (%) (Monocytes; [14]): (1.5%)
Monocytes, Change (Monocytes; [15]): −0.001 Freq
Monocytes, 3 Months (Monocytes; [16]): 0.085 Freq
Fold vs DMSO control P-TNFR1/Actin in Gel2 ([1]; 100 nM, 0 min): 0.32 fold
Fold vs DMSO control P-TNFR1/TNFR1 in Gel2 ([1]; 100 nM, 0 min): 0.27 fold
Fold vs DMSO control P-TNFR1/Actin in Gel2 ([1]; 100 nM, 15 min): 0.79 fold
Fold vs DMSO control P-TNFR1/TNFR1 in Gel2 ([1]; 100 nM, 15 min): 0.57 fold
Fold vs DMSO control P-TNFR1/Actin in Gel2 ([1]; 100 nM, 30 min): 0.23 fold
Fold vs DMSO control P-TNFR1/TNFR1 in Gel2 ([1]; 100 nM, 30 min): 0.17 fold
